Entries after “also recorded” stand apart in the source; their conditions may differ.
How the values were obtained:
mTYKRIL = assay: Murine TYKRIL knockdown in vivo, mTYKRIL in organs; parameters: species or system mouse; settings: mice, 20 mg/kg intraperitoneally, single shot, 48 h
Procedure: (§1) HPLC purified. LNA GapmeRs were injected intraperitoneally at a dosage of 20 mg/kg bodyweight. 48 hours after injection, mice were sacrificed by isoflurane overdose and cardially perfused with PBS at a steady flow of 9 ml/min. Subsequently organs were removed and snap forzen for RNA and protein isolation.

PDGFRβ [1] = assay: Murine TYKRIL knockdown in vivo, PDGFRβ in organs; parameters: species or system mouse; settings: mice, 20 mg/kg intraperitoneally, single shot, 48 h
Procedure: as §1

TYKRIL = TYKRIL expression in human pericytes by qRT-PCR; assay type: cell-based; settings: for TYKRIL expression levels in PC: LNA GapmeR 50 nmol/l, 48 h after transfection, vs scrambled control
Procedure: (§2) Cells were grown to 60-80% confluency and were transfected for 4 hours in Optimem Medium using Lipfectamine (both from Life technologies, Carlsbad, Calif., USA) with 50 nmol/l LNA GapmeR (Exiqon, Vedbaek, Denmarkt) according to the manufacturer's instructions. Controls were transfected with scrambled LNA GapmeR control. Four hours after LNA Gapmer Transfection, Optimem Medium was exchanged with normal cell culture medium. All experimental manipulations were carried out 48 hours after transfection.
(§3) Total RNA from PC was isolated using RNeasy Mini Kits (Qiagen, Hilden, Germany) as recommended by the manufacturer including a DNA digestion step. Nuclear and cytosolic fractions were prepared as documented elsewhere 34. 500-1000 ng RNA was reversely transcribed with random hexamer primers (ThermoScientific, Waltham, USA) by MulV reverse transcriptase (Lifetechnologies) in 40 μl reaction volume. Fast SYBR green or SYBR green (Applied Biosystems, Forster City, USA) and cDNA were used for qRT-PCR. A Viia7 or StepOnePlus from Applied Biosystems was used. CT values were normalized against ribosomal RPLP0. Relative gene expression levels were determined by the formula: 2-deltaCT; deltaCT=CTtarget−CTcontrol.

PDGFRβ [2] = assay: PDGFRβ expression in human pericytes by qPCR and immunoblotting; assay type: cell-based; settings: for PDGFRβ mRNA (qPCR) / PDGFRβ protein levels (immunoblotting): upon TYKRIL silencing by LNA GapmeRs
Procedure: as §2, §3
Standard immunofluorescent staining procedures were carried out as described before 35-37. In brief, cells were washed with PBS, fixed in ice cold acetone for about 5 minutes. After washing cells were blocked for 2 hours at room temperature with 5% donkey serum (Dianova, Hambur, Germany), 0.3% Triton X-100 in PBS. Primary antibodies were incubated overnight in PBS containing 2% BSA, 0.1% Triton X-100. Secondary antibodies and Hoechst (Lifetechnologies, 1/1000) were incubated in 2% BSA, 0.1% azide for another 2 hours. For SDS Page protein isolation cells were washed once with ice-cold PBS, snap frozen in liquid nitrogen and RIPA-buffer (Thermo Scientific, Rockford, USA) supplemented with protease inhibitor (Roche Diagnostics) was applied. Cells were then scraped off with an ice cold rubber policeman and incubated for 45 minutes on ice under agitation. Subsequently probes were centrifuged for 10 minutes at 5000 RPM at 4° C. The supernatant was transferred into ice cold vials and protein concentration was determined by performing a Bradford assay with RotiQuant (Carl Roth, Karlsruhe, Germany) according to the manufacturer's instructions. Protein samples were mixed with an equal volume of 2× Laemmli buffer (Sigma Aldrich). Gels (Mini-Protean TGX, BioRad) were loaded with 20-30 μg protein per lane. SDS page was performed for 1 hour at 100V in […] (BioRad). Western Blotting was performed using a Pierce G2 Fast Blotter according to the manufacturer's instructions (ThermoScientific).

human pericytes = assay: RNA Seq upon TYKRIL knockdown in pericytes; assay type: cell-based; settings: upon TYKRIL knockdown with LNA GapmeRs
Procedure: RNA deep sequencing was performed by analyzing ribosomal depleted total RNA from human Pericytes. RNA was isolated using a RNeasy Mini Kit (Qiagen) according to the manufacturer's instructions including DNA digestion. Subsequently RNA was fragmented and primed for cDNA synthesis. Libraries were created using a TruSeq RNA Ribo-Zero Globin kit (from Illumina) as recommended by the manufacturer. A Illumina HiSeq 2000 flowcell was used for sequencing. lncRNA annotation was done based on the NONCODE database (noncode.org).

[3] = PC viability by MTT assay; settings: human
human pericytes (PC) = assay: PC viability by MTT assay
[4] = p53 gain of function by doxorubicin treatment

mLNA#4: murine TYKRIL LNA Gapmer, SEQ ID NO: 12, GTCTGCACTTAATTAA (LNA gapmer, pattern and linkages not given here; listed as Mus musculus)
mTYKRIL (qPCR) in heart (mTYKRIL): downregulation
mTYKRIL in kidneys (mTYKRIL; 20 mg/kg): decreased; also recorded: downregulation
mTYKRIL in liver (mTYKRIL; 20 mg/kg): decreased; also recorded: downregulation
mTYKRIL in lungs (mTYKRIL; 20 mg/kg): decreased; also recorded: downregulation
mTYKRIL in spleen (mTYKRIL; 20 mg/kg): decreased; also recorded: downregulation
PDGFRβ (qPCR) in heart (PDGFRβ [1]): downregulation
PDGFRβ protein level in heart (PDGFRβ [1]): PDGFRβ loss
PDGFRβ in kidneys (PDGFRβ [1]; 20 mg/kg): decreased; also recorded: downregulation
PDGFRβ in liver (PDGFRβ [1]; 20 mg/kg): decreased; also recorded: downregulation
PDGFRβ in lungs (PDGFRβ [1]; 20 mg/kg): decreased; also recorded: downregulation
PDGFRβ in spleen (PDGFRβ [1]; 20 mg/kg): decreased; also recorded: downregulation

LNA#3: LNA GapmeR against human TYKRIL, 5′-3′: AGTGAAGGACAGAGGC (LNA gapmer: LNA flanks around DNA gap, pattern and linkages not given here)
TYKRIL expression levels in PC (TYKRIL): significant reduction of TYKRIL
PDGFRβ mRNA (qPCR) (PDGFRβ [2]): loss of PDGFRβ
PDGFRβ protein levels (immunoblotting) (PDGFRβ [2]): loss of PDGFRβ
Pericyte differentiation state by RNA Seq (human pericytes): de-differentiation of Pericytes

LNA#1: LNA GapmeR against human TYKRIL, 5′-3′: AGAGGTGATTAAGGT (LNA gapmer: LNA flanks around DNA gap, pattern and linkages not given here)
TYKRIL expression levels in PC (TYKRIL): significant reduction of TYKRIL
PDGFRβ mRNA (qPCR) (PDGFRβ [2]): loss of PDGFRβ
PDGFRβ protein levels (immunoblotting) (PDGFRβ [2]): loss of PDGFRβ
Pericyte differentiation state by RNA Seq (human pericytes): de-differentiation of Pericytes

Cc1ccc(NC(=O)c2ccc(CN3CCN(C)CC3)cc2)cc1Nc1nccc(-c2cccnc2)n1 [Imatinib]
cytotoxicity at 24 h, 1 μM ([3]; human pericytes (PC)): ~20%
cytotoxicity ([3]; human pericytes (PC) with TYKRIL silenced by LNA GapmeR): ~45%
PC viability (MTT), in words (human pericytes (PC); imatinib 1 μM, 24 h, compared with solvent PBS): significantly decreased PC viability
PC viability (MTT), in words (human pericytes (PC); imatinib upon TYKRIL silencing, compared with scramble control transfected PC): significantly more reduced

COc1cccc2c1C(=O)c1c(O)c3c(c(O)c1C2=O)C[C@@](O)(C(=O)CO)C[C@@H]3O[C@H]1C[C@H](N)[C@H](O)[C@H](C)O1 [doxorubicin, reference compound]
TYKRIL expression (TYKRIL; [4]): loss of TYKRIL; also recorded: downregulation
PDGFRβ on RNA level (PDGFRβ [2]; [4]): downregulation of PDGFRβ; also recorded: significant decline
PDGFRβ on protein level (PDGFRβ [2]; [4]): downregulation of PDGFRβ; also recorded: significant decline

From US20180044672A1, “Pericyte Long Non-Coding RNAs” (Johann Wolfgang Goethe-Universität Frankfurt am Main, priority 2015, published 2018)
